Results published in ChEMBL document CHEMBL1133192, “sp2-bridged diaryl retinoids: effects of bridge-region substitution on retinoid X receptor (RXR) selectivity” (Bioorg Med Chem Lett, 2000).
One block for each compound: values may come before it. Activity calls are given as the source filed them. No cut-off for these calls is given here.

What was measured:
[1] = molecular target: T1, Retinoic acid receptor RXR-alpha (Homo sapiens, UniProt P19793); experiment: Transcriptional activation in CV-1 cells expressing Retinoid X receptor RXR-alpha; format: cell-based, Cercopithecidae
T1 sequence (P19793 whole entry): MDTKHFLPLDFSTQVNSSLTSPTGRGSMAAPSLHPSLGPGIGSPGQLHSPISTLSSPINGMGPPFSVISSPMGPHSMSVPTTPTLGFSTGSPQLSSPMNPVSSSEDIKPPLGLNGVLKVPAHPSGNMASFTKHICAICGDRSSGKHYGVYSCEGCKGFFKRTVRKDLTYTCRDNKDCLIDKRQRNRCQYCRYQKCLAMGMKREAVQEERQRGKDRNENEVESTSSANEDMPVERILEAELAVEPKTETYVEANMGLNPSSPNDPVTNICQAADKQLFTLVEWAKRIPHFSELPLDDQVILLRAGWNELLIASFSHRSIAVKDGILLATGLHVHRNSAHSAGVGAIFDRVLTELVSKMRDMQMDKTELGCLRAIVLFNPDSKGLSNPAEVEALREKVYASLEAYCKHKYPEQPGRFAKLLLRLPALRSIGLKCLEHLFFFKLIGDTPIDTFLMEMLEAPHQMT

[2] = molecular target: T1, Retinoic acid receptor RXR-alpha; experiment: Transcriptional activation in CV-1 expressing retinoid X receptor RXR alpha
MDA-MB-231 [3] = experiment: Effect on MDA-MB-231 cell proliferation; No effect; format: functional, cell-based; conditions: Homo sapiens
MDA-MB-231 [4] = experiment: Effect on MDA-MB-231 cell proliferation with compound 8; Significant inhibition; format: functional, cell-based; conditions: Homo sapiens
MDA-MB-231 [5] = experiment: Inhibition of MDA-MB-231 cell proliferation after seven days; format: functional, cell-based; conditions: Homo sapiens, MDA-MB-231, 168 h
[6] = molecular target: T2, Retinoic acid receptor alpha (Homo sapiens) (UniProt P10276); experiment: Percent transcriptional activation of Retinoic acid receptor RAR alpha at 1 uM compared to 1 uM trans-retinoic acid
T2 sequence (whole entry): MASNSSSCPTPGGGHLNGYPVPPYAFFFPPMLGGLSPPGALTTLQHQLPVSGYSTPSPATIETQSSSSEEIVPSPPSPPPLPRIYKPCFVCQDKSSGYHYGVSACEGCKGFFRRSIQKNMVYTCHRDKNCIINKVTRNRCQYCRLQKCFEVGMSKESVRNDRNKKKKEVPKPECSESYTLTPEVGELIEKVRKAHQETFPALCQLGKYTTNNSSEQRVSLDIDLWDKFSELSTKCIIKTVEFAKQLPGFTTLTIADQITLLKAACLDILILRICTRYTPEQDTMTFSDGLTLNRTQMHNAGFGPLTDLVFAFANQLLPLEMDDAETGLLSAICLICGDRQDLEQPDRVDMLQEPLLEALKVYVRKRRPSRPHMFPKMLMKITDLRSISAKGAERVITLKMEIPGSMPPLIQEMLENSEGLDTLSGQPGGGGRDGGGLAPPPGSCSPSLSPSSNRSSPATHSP

[7] = molecular target: T3, Retinoic acid receptor gamma (Homo sapiens) (UniProt P13631); experiment: Percent transcriptional activation of Retinoic acid receptor RAR gamma receptor at 1 uM compared to 1 uM trans-retinoic acid
T3 sequence (whole entry): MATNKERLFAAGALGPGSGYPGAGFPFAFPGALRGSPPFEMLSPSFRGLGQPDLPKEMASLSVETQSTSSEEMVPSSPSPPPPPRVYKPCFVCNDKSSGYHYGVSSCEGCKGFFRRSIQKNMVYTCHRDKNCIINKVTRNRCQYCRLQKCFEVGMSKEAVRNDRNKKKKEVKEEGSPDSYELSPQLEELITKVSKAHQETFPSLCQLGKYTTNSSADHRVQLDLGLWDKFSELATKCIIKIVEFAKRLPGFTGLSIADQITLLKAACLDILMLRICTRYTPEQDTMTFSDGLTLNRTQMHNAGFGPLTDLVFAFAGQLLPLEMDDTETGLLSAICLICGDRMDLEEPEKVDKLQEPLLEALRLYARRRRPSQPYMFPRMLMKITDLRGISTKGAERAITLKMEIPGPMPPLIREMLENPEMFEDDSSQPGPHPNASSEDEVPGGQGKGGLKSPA

[8] = molecular target: T4, Retinoic acid receptor beta (Homo sapiens) (UniProt P10826); experiment: Percent transcriptional activation of Retinoic acid receptor beta at 1 uM compared to 1 uM trans-retinoic acid
T4 sequence (whole entry): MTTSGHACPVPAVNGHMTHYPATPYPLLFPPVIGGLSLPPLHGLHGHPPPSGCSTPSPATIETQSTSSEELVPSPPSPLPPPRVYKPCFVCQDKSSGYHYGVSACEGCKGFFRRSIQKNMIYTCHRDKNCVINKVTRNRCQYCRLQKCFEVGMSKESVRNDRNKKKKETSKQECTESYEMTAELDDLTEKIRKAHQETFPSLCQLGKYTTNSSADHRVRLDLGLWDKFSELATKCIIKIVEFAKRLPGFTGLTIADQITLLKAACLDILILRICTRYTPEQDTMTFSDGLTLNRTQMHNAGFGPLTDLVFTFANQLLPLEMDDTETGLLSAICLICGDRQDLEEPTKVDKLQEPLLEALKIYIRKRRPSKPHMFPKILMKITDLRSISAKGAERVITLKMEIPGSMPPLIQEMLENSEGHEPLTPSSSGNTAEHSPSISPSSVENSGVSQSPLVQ

MDA-MB-231 [9] = experiment: Inhibition of MDA-MB-231 cell proliferation after seven days at 12.5 uM; format: functional; conditions: Homo sapiens, MDA-MB-231, 168 h
MDA-MB-231 [10] = experiment: Effect on MDA-MB-231 cell proliferation with trans-RA; No inhibition; format: functional, cell-based; conditions: Homo sapiens
MDA-MB-231 [11] = experiment: Effect on MDA-MB-231 cell proliferation; No inhibition; format: functional, cell-based; conditions: Homo sapiens

Structure (SMILES): CC1(C)CCC(C)(C)c2cc(-c3cccc4cc(C(=O)O)ccc34)ccc21
- AC50 [2]: > 1000 nM

Structure (SMILES): CC1=C(/C=C/C(C)=C/C=C/C(C)=C/C(=O)O)C(C)(C)CCC1
- Activity (MDA-MB-231 [3]): inactive
- Activity (MDA-MB-231 [4]): Active

Structure (SMILES): CC1=C(/C=C/C(C)=C\C=C\C(C)=C\C(=O)O)C(C)(C)CCC1 [ALITRETINOIN]
- Activation [6]: 105%
- Activation [7]: 126%
- Activation [8]: 112%
- inhibition at 12.5 µM (MDA-MB-231 [9]): 45%

Second part, led by results:

- AC50 [1]: > 1000 nM
Structure (SMILES): CC(C)/C=C(/c1ccc(C(=O)O)cc1)c1ccc2c(c1)C(C)(C)CCC2(C)C

- AC50 [1]: 160 nM
Structure (SMILES): CC(C)=C(c1ccc(C(=O)O)cc1)c1ccc2c(c1)C(C)(C)CCC2(C)C

- IC50 (MDA-MB-231 [5]): 1100 nM
- AC50 [1]: 5 nM
Structure (SMILES): CC1(C)CCC(C)(C)c2cc(C(=C3CC3)c3ccc(C(=O)O)cc3)ccc21

- AC50 [1]: < 10 nM
Structure (SMILES): Cc1cc2c(cc1C(=C1CC1)c1ccc(C(=O)O)cc1)C(C)(C)CCC2(C)C

- AC50 [1]: 22 nM
Structure (SMILES): CC(C)=C(c1ccc(C(=O)O)cc1)c1cc2c(cc1C)C(C)(C)CCC2(C)C
- Activity (MDA-MB-231 [10]): inactive
- Activity (MDA-MB-231 [11]): inactive
